Data published in PubChem BioAssay AID256 (DTP/NCI, 2004).
Values joined by “and” are separate entries in the source; they are usually repeats but may differ in a detail not shown here. Equal values may be shown once. Toxic doses and inconclusive results are not listed. How the source made its calls: active means survival T/C of 150% or more; inactive means T/C below 125% in these data.

Tested on: CD2F1 mice, L1210 leukemia ip, survival T/C
Assay: NCI In Vivo Anticancer Drug Screen. Data for tumor model L1210 Leukemia (intraperitoneal) in CD2F1 (CDF1) mice
Conditions: higher = longer survival
In short: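 Implant tumor; dose compound or vehicle; measure endpoint in both groups; report treated divided by control.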

[1] = endpoint: mean survival time, dose: 100.0 mg/kg/injection, schedule: Q04DX002 (ip), vehicle: saline with Tween-80
[2] = endpoint: mean survival time, dose: 200.0 mg/kg/injection, schedule: Q04DX002 (ip), vehicle: saline with Tween-80
[3] = endpoint: mean survival time, dose: 200.0 mg/kg/injection, schedule: Q04DX003 (ip), vehicle: saline with Tween-80
[4] = endpoint: mean survival time, dose: 400.0 mg/kg/injection, schedule: Q04DX002 (ip), vehicle: saline with Tween-80
[5] = endpoint: mean survival time, dose: 100.0 mg/kg/injection, schedule: Q01DX001 (ip), vehicle: saline with Tween-80
[6] = endpoint: mean survival time, dose: 200.0 mg/kg/injection, schedule: Q01DX001 (ip), vehicle: saline with Tween-80
[7] = endpoint: mean survival time, dose: 400.0 mg/kg/injection, schedule: Q01DX001 (ip), vehicle: saline with Tween-80
[8] = endpoint: mean survival time, dose: 100.0 mg/kg/injection, schedule: Q01DX009 (ip), vehicle: saline with Tween-80
[9] = endpoint: mean survival time, dose: 100.0 mg/kg/injection, schedule: Q04DX003 (ip), vehicle: saline with Tween-80
[10] = endpoint: mean survival time, dose: 200.0 mg/kg/injection, schedule: Q01DX009 (ip), vehicle: saline with Tween-80

Measured: T/C

C1N2CN3CN1CN(C2)C3.[Cl][Pt+2][Cl]
inactive: endpoint: mean survival time, dose: 18.75 mg/kg/injection, schedule: Q04DX003 (ip), vehicle: saline 103 % of control | endpoint: mean survival time, dose: 37.5 mg/kg/injection, schedule: Q04DX003 (ip), vehicle: saline 106 % of control | endpoint: mean survival time, dose: 75.0 mg/kg/injection, schedule: Q04DX003 (ip), vehicle: saline 101 % of control | endpoint: mean survival time, dose: 150.0 mg/kg/injection, schedule: Q04DX003 (ip), vehicle: saline 107 % of control | endpoint: mean survival time, dose: 300.0 mg/kg/injection, schedule: Q04DX003 (ip), vehicle: saline 103 % of control

COc1cc2c(cc1OC)C(c1cc(OC)c(OC)c(OC)c1)=NCC2
inactive: [1] 104 % of control | [2] 104 % of control | [3] 87 % of control | [4] 100 % of control | endpoint: mean survival time, dose: 400.0 mg/kg/injection, schedule: Q04DX003 (ip), vehicle: saline with Tween-80 87 % of control

Nc1ncnc2c1ncn2C1OC(CO)C2NP(=O)(N(CCCl)CCCl)OC21 (stereo not drawn)
inactive: endpoint: mean survival time, dose: 15.6 mg/kg/injection, schedule: Q01DX001 (ip), vehicle: distilled water + Tween-80 98 % of control and 101 % of control | endpoint: mean survival time, dose: 31.3 mg/kg/injection, schedule: Q01DX001 (ip), vehicle: distilled water + Tween-80 101 % of control | endpoint: mean survival time, dose: 62.5 mg/kg/injection, schedule: Q01DX001 (ip), vehicle: distilled water + Tween-80 101 % of control

CSc1ccccc1C(=O)OC(C)(C)C
inactive: [5] 96 % of control | [6] 103 % of control | [7] 103 % of control

C(#CC[P+](c1ccccc1)(c1ccccc1)c1ccccc1)C[P+](c1ccccc1)(c1ccccc1)c1ccccc1
inactive: endpoint: mean survival time, dose: 0.78 mg/kg/injection, schedule: Q01DX009 (ip), vehicle: Klucel (hydroxypropylcellulose) (HPC) 92 % of control | endpoint: mean survival time, dose: 1.56 mg/kg/injection, schedule: Q01DX009 (ip), vehicle: Klucel (hydroxypropylcellulose) (HPC) 92 % of control | endpoint: mean survival time, dose: 3.12 mg/kg/injection, schedule: Q01DX009 (ip), vehicle: Klucel (hydroxypropylcellulose) (HPC) 90 % of control | endpoint: mean survival time, dose: 6.25 mg/kg/injection, schedule: Q01DX009 (ip), vehicle: Klucel (hydroxypropylcellulose) (HPC) 101 % of control | endpoint: mean survival time, dose: 12.5 mg/kg/injection, schedule: Q01DX009 (ip), vehicle: Klucel (hydroxypropylcellulose) (HPC) 93 % of control and 107 % of control

COC(=O)c1ccc(OC)c2nc3c(C=O)c(OC)c(C)c(OC)c3nc12
inactive: [5] 94 % of control | [1] 98 % of control | [6] 95 % of control | [2] 106 % of control | [7] 103 % of control | [4] 106 % of control

COc1ccc([Si](C)(C)CNCCSS(=O)(=O)O)cc1
inactive: endpoint: mean survival time, dose: 50.0 mg/kg/injection, schedule: Q01DX009 (ip), vehicle: saline with Tween-80 97 % of control | [8] 103 % of control | [9] 101 % of control | [10] 92 % of control | [3] 95 % of control

COc1ccc(OC)c(/C=C(\C#N)c2ccc([N+](=O)[O-])cc2)c1
inactive: endpoint: mean survival time, dose: 16.5 mg/kg/injection, schedule: Q01DX009 (ip), vehicle: saline with Tween-80 87 % of control | endpoint: mean survival time, dose: 25.0 mg/kg/injection, schedule: Q01DX009 (ip), vehicle: saline with Tween-80 87 % of control | [8] 90 % of control | [9] 91 % of control | [10] 86 % of control | [3] 101 % of control

CCN(CC)C(=S)S[Se](SC(=S)N(CC)CC)(SC(=S)N(CC)CC)SC(=S)N(CC)CC
inactive: endpoint: median survival time, dose: 3.12 mg/kg/injection, schedule: Q01DX009 (ip), vehicle: Klucel (hydroxypropylcellulose) (HPC) 103 % of control | endpoint: median survival time, dose: 6.25 mg/kg/injection, schedule: Q01DX009 (ip), vehicle: Klucel (hydroxypropylcellulose) (HPC) 101 % of control | endpoint: median survival time, dose: 12.5 mg/kg/injection, schedule: Q01DX009 (ip), vehicle: Klucel (hydroxypropylcellulose) (HPC) 95 % of control | endpoint: median survival time, dose: 25.0 mg/kg/injection, schedule: Q01DX009 (ip), vehicle: Klucel (hydroxypropylcellulose) (HPC) 93 % of control | endpoint: median survival time, dose: 50.0 mg/kg/injection, schedule: Q01DX009 (ip), vehicle: Klucel (hydroxypropylcellulose) (HPC) 93 % of control
